This is an account of results in patent publication US9271934B2, “Water dispersible glyceryl monooleate magnetic nanoparticle formulation” (Institute of Life Sciences, priority 2009, dated 2016).

Data set [1] has as its system MCF-7 (breast cancer) cell line. The experiment in a line: Mitogenic (MTT) assay, antiproliferative effect in MCF-7 cells. Type of data set: cell-based. As for the experimental part: The cell culture experiments were carried out in MCF-7 (breast cancer) cell line purchased from American Type Culture Collection (ATCC, Manassas, Va.) were grown in RPMI 1640 medium (Himedia Laboratories Pvt. Ltd., Mumbai, India) supplemented with 10% fetal bovine serum (Himedia Laboratories Pvt. Ltd., Mumbai, India) and 100 μg/ml penicillin G and 100 μg/ml streptomycin (Gibco BRL, Grand island, NY) at 37° C. in a humidified and 5% CO2 atmosphere (Hera Cell, Thermo Scientific, Waltham, Mass.).
(§1) To find out the cytotoxicity of the anticancer drugs, mitogenic assay was carried out. The MCF-7 cells were seeded at 5,000 per well in 96 well plate (Corning, N.Y., USA) and kept in the incubator for 24 hours for better cell attachment. […] Glyceryl monooleate (GMO) Magnetic nanoparticles (MNPs) without drug and medium were used as respective controls. The medium was changed on 2nd and 4th days following the drug treatment; no further dose of drug was added. Viability of the cells was determined at 5th day. After the specified incubation time, 10 μl MTT (Sigma) was added, and the plates were incubated for 3 hours at 37° C. in a cell culture incubator (Hera Cell, Thermo Scientific, Waltham, Mass.), following which the intracellular formazan crystals were solubilized in dimethyl sulfoxide and the color intensity was measured at 540 nm using a microplate reader (Synergy HT, BioTek Instruments, Inc., Winooski, Vt.). The antiproliferative effect of different treatments was calculated as a percentage of cell growth with respect to respective controls.
The cell culture experiments were carried out in MCF-7 (breast cancer) cell line purchased from American Type Culture Collection (ATCC, Manassas, Va.) were grown in RPMI 1640 medium (Himedia Laboratories PVT. LTD., Mumbai, India) supplemented with 10% fetal bovine serum (Himedia Laboratories Pvt. Ltd., Mumbai, India) and 100 μg/ml penicillin G and 100 μg/ml streptomycin (Gibco BRL, Grand island, NY) at 37° C. in a humidified and 5% CO2— atmosphere (Hera Cell, Thermo Scientific, Waltham, Mass.).
as §1, with “GMO-MNPs” for “Glyceryl monooleate (GMO) Magnetic nanoparticles (MNPs)”

A further data set relates to human erythrocytes. As to conditions: pluronic used as emulsifying agent for amphotericin-B; cited from earlier work.
The conditions of data set [2]: higher doses; cited from earlier work.
[3] abbreviates: MCF-7, MTT day 5, highest concentration of the range (1000 ng/ml, printed for paclitaxel).
The mark [4] stands for this setting: MCF-7, MTT day 5, lowest concentration of the range (1 ng/ml, printed for paclitaxel).

Turning to `CC(=O)O[C@H]1C(=O)[C@@]2(C)[C@H]([C@H](OC(=O)c3ccccc3)[C@]3(O)C[C@H](OC(=O)[C@H](O)[C@@H](NC(=O)c4ccccc4)c4ccccc4)C(C)=C1C3(C)C)[C@]1(OC(C)=O)CO[C@@H]1C[C@@H]2O` [paclitaxel, Paclitaxel], the figures for the cell viability percentage result in data set [1] (setting [3]) and in data set [1] (setting [4]) were “about 30%” and 95%, respectively.

In general, IC50 refers to the concentration at which inhibition is half-maximal. As for `CO[C@H]1C[C@@H]2CC[C@@H](C)[C@@](O)(O2)C(=O)C(=O)N2CCCC[C@H]2C(=O)O[C@H]([C@H](C)C[C@@H]2CC[C@@H](O)[C@H](OC)C2)CC(=O)[C@H](C)/C=C(\C)[C@@H](O)[C@@H](OC)C(=O)[C@H](C)C[C@H](C)/C=C/C=C/C=C/1C` [rapamycin], the IC50 in data set [1] (Homo sapiens, MCF7, 120 h, MCF-7 cells, MTT assay on day 5, medium changed on days 2 and 4) turned out to be 0.0588 µg/mL. In addition, the cell viability percentage in data set [1] (setting [3]) was 37%; in data set [1] (setting [4]) it was 65%.

With Pluronic F-127, the “concentration with detectable cell lysis of human erythrocytes” value with human erythrocytes was 16000 ng/mL. The “effect on cholesterol and triglycerides in the blood plasma” value in data set [2] is “elevation of cholesterol and triglycerides in the blood plasma”.
